Consider two compounds from publication PMC11157491, “Novel Alaninamide Derivatives with Drug-like Potential for Development as Antiseizure and Antinociceptive Therapies—In Vitro and In Vivo Characterization” (ACS Chemical Neuroscience, 2024).

The subject of data set [1] is mice. Briefly: Timed ivPTZ seizure threshold test. Type of data set: in vivo. The note with it: 50 mg/kg i.p. An excerpt:
The timed intravenous (iv) PTZ-induced seizure test was used to characterize the acute effect of compounds 26 and 28 on the thresholds for myoclonic, clonic, and tonic seizure in mice (Figure 2). It is noteworthy that the ivPTZ seizure test is a very sensitive method for determining the compounds’ effects on seizure threshold in rodents.[35] […] In the ivPTZ seizure test, bilateral forelimb tonic extension is usually quickly followed by hindlimb tonic extension and death due to respiratory arrest. […] In mice with no forelimb tonus, PTZ infusion was stopped after 180 s and the threshold dose of PTZ (in mg/kg) was calculated in those mice taking 180 s as infusion duration.
Figure 2 Acute effects of compounds 26 (A) and 28 (B) on seizure thresholds in the timed ivPTZ seizure test in mice. Both compounds were administered i.p. at a dose of 50 mg/kg, 30 min before the test. Control animals received vehicle. Data are presented as means (mg/kg PTZ) ± SEM (n = 9–13 animals). The statistical significance was evaluated by a Student’s t-test: *p < 0.05, **p < 0.01, ***p < 0.001, and ****p < 0.0001, as compared to the vehicle-treated group (GraphPad Prism 8).
(§1) In studies assessing the acute effect of compounds 26 and 28 on the ivPTZ seizure threshold and neuromuscular strength, the compounds were suspended in a 1% solution of Tween 80 and administered i.p., at a dose of 50 mg/kg of body weight, 30 min before the tests. The experimental procedures of the timed ivPTZ test and the grip strength test were described in detail elsewhere.[64]
(§2) Data from the ivPTZ test and the grip strength test were analyzed using Student’s t-test.

Data set [2] relates to mice. Briefly: Grip strength test. Particulars: 50 mg/kg i.p., 30 min before test. The class given is in vivo. Here is the method:
The grip strength test was performed just before the ivPTZ test to assess the acute effect of compounds 26 and 28 on neuromuscular strength.
as §1, §2
Figure S1. Acute effects of compound 26 (A) and 28 (B) on grip strength in mice. Both compounds were administered i.p. at a dose of 50 mg/kg, 30 min before the test. Control animals received vehicle. Data are presented as means ± SEM of grip strength expressed in mN/g of body weight (n = 10animals). The statistical significance was evaluated by a Student's t test (GraphPad Prism 8). […]
Behavioral tests were performed 24 h after the last PTZ injection. […] The statistical significance was evaluated by one-way ANOVA followed by the Tukey’s post hoc test: *p < 0.05, (GraphPad Prism 8). […]

For data set [3], the system named is Na^+ channel (site 2). Briefly: Na+ channel (site 2) radioligand binding. Particulars: 100 μM, rat cerebral cortex. Here is the method:
(§3) Importantly, sodium or calcium conductance is often associated with the pathophysiology of epilepsy as well as neuropathic pain.[46]−[50] Therefore, both sodium and calcium ion channels are well-established molecular targets for structurally diverse ASMs such as LCS, lamotrigine, carbamazepine, oxcarbazepine, etc.[51] Consequently, we carried out binding and/or functional studies toward the sodium channel (site 2) and calcium Cav1.2 channel at high concentrations (100 μM) of 26 and 28 (Table 5). […] Next, 26 and 28 due to the presence of the phenylpiperazine moiety, which is a well-recognized pharmacophore for serotoninergic receptor (5-HTxR) ligands,[52] were evaluated for their influence on 5-HT2CR, where stimulation plays a key role for the antiseizure activity of lorcaserin (one of the newest ASMs).[6]
(§4) Binding/functional studies were carried out commercially in Eurofins Laboratories (Poitiers, France) and Eurofins Panlabs Discovery Services Taiwan, Ltd. (New Taipei City, Taiwan) using testing procedures that were reported previously (for details, see Table S2).
(§5) Table S2. Radioligand binding and functional assays. […]
(§6) Assays were performed commercially in Eurofins Laboratories ( Poitiers, France) or Eurofins Panlabs Discovery Services
(§7) Taiwan, Ltd. (New Taipei City, Taiwan).

In data set [4] the target is T1, Cav1.2 (h) calcium ion channel (Homo sapiens, UniProt Q13936).
T1 construct: Eurofins (contract assay)
Briefly: Cav1.2 cell-based antagonist calcium flux assay. Particulars: HEK293, human recombinant HEK-293 cell, read-out: % inhibition of control agonist response. As for the experimental part:
as §3, §4, §5
Cav1.2 (L-type) (h) calcium ion channel cell-based antagonist calcium flux assay […]
as §6, §7
Background: A change in cytosolic calcium serves as a functional read-out for many receptors and channels.

Data set [5] concerns the target 5-HT2C (h) (Homo sapiens, UniProt P28335). Briefly: 5-HT2C agonist effect functional assay. The class given is cell-based. Particulars: HEK293, human recombinant HEK-293 cell, read-out: % inhibition of control agonist response (5-HT2C agonist effect). Here is the method:
as §3, §4, §5
5-HT2C (agonist effect)
as §6, §7

Data set [6] addresses T2, TRPV1 (VR1) (h) (Homo sapiens, UniProt Q8NER1).
T2 construct: Eurofins (contract assay)
Briefly: TRPV1 antagonist effect functional assay. The class given is cell-based. The note with it: 10 μM, human recombinant CHO cells; read-out: % inhibition of control agonist response. Here is the method: For many years, the TRPV1 channel, permeable to calcium and sodium ions, has been recognized as a promising molecular target for novel analgesics.[19] […] Therefore, bearing in mind the involvement of TRPV1 in pain sensation and potentially in seizure induction, in the next step of the in vitro studies, the TRPV1 antagonist activity was determined for all compounds obtained (Table 6).
as §4, §5
TRPV1 (VR1) (h) (antagonist effect) […]
as §6, §7

Data set [7] in a line: PAMPA passive permeability. The class given is in vitro ADME. Particulars: precoated PAMPA Plate System; for Papp: read-out: PAMPA—Pe ± SD. An excerpt: The precoated parallel artificial membrane permeability assay (PAMPA) was used to determine the passive mechanism of permeability.
Background: The PAMPA barrier holds no transporters, so it reflects passive diffusion.

Data set [8] in a line: HepG2 cell viability (hepatotoxicity). The note with it: human, HepG2 hepatoma cells; at 1.56 μM, 48 h; read-out: HepG2 viability (% of control ± SD). The class given is cell-based, human. Here is the method: (§8) The in vitro safety tests were performed with the use of a hepatoma HepG2 cell line to estimate the hepatotoxic potential of the tested compounds.
In data set [9] the test system is HepG2 cell line. Briefly: HepG2 cell viability (hepatotoxicity). Type of data set: cell-based, human. The note with it: for cell survival: HepG2, 100 μM; for concentration from which a statistically significant decrease of cell viability was observed: HepG2, 48 h. Here is the method: as §8
Data set [10] concerns human serum albumin (HSA) and α1-acid glycoprotein (AGP).
Experimental: The plasma protein binding: human serum albumin (HSA) and α1-acid glycoprotein (AGP) was evaluated by the commercial TRANSIL^XL PPB assay.
Data set [11] concerns the target CYP2D6 (Homo sapiens, UniProt P10635). Particulars: 1 μM.

CYP2D6, sequence (P10635 whole entry): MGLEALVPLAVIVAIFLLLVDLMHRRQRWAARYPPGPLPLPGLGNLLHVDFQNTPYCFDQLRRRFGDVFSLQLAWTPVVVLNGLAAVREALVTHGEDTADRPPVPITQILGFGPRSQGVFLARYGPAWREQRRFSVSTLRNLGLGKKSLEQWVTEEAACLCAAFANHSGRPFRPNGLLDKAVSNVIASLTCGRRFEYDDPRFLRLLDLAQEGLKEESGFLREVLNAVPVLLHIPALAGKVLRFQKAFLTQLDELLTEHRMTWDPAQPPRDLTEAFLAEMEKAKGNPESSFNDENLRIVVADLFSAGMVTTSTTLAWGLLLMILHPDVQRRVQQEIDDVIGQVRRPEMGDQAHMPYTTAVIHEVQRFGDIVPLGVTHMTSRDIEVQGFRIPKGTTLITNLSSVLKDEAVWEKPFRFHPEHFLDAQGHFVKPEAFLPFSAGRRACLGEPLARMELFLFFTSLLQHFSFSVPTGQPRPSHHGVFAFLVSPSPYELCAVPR
5-HT2C (h), sequence (P28335 33-458): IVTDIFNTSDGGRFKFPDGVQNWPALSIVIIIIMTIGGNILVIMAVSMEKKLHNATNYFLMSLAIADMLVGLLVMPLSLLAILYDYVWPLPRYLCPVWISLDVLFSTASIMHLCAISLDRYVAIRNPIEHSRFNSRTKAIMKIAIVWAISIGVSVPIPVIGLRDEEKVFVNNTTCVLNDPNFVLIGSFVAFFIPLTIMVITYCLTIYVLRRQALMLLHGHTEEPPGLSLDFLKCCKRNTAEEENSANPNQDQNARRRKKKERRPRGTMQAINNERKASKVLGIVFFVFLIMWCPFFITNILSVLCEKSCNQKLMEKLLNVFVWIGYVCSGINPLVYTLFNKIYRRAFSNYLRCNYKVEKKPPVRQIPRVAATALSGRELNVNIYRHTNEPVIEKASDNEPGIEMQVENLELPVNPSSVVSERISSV
T2 sequence (Q8NER1 whole entry): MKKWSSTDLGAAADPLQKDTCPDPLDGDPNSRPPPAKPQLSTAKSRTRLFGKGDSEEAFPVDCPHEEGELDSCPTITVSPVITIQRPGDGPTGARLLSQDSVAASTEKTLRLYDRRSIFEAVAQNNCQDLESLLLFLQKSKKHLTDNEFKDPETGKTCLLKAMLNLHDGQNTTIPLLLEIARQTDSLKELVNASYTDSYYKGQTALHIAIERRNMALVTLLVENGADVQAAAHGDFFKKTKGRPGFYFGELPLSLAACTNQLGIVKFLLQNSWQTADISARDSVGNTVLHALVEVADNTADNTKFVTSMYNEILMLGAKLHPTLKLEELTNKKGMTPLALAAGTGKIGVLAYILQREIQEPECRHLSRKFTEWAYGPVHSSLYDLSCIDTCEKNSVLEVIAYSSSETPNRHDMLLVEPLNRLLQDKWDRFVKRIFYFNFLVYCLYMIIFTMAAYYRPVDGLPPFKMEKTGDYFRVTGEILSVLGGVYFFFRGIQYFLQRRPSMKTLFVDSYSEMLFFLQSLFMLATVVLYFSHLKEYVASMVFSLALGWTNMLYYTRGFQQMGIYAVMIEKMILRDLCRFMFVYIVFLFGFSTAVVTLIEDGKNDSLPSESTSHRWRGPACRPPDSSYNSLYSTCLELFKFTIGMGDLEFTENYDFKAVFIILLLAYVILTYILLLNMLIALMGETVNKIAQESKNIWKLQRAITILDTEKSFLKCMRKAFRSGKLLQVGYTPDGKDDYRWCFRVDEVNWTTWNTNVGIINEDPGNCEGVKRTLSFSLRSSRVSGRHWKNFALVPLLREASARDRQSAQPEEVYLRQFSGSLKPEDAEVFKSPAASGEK

For orientation: inhibition means the drop in the measured response relative to a control, in per cent. What is called viability is a read-out of living cells in per cent, often relative to untreated cells. `CC(=O)NC(C)C(=O)N1CCN(c2cccc(C(F)(F)F)c2)CC1` (centres unmarked) [Compound 26, N-(1-oxo-1-(4-(3-(Trifluoromethyl)phenyl)piperazin-1-yl)propan-2-yl)acetamide]: the “mice in which hindlimb tonus (only) was diminished/inhibited” value in data set [1] (12 mice) was 10 out of 12. Further, in data set [1] (30 min before ivPTZ), the “seizure threshold for generalized clonic seizure with loss of righting reflex” value is on record as “significantly raised”, the “seizure threshold for the first myoclonic twitch” value was “significantly raised” and the “threshold for forelimb tonus” value was “did not significantly affect”. Also, in [2], the “neuromuscular strength (grip strength)” value was “Neither compound 26 nor 28 (50 mg/kg) significantly affect”. Also, the “% inhibition of control specific binding” value in data set [3] is given as 4.5 (100) %. For the same compound, the inhibition at 100 µM in [4] worked out at 7%. Besides, the inhibition at 10 µM in [5] came out at 0.5%. For the same compound, the inhibition at 10 µM in data set [6] was -4.9%. Besides, in [7], the “PAMPA—Pe ± SD” value is reported as 4.51 10^–6 cm/s and the Papp was found to be 4.51 ± 0.61 ×10⁻⁶ cm/s. Also, the viability at 48 h, 1.56 µM in data set [8] is 104 ± 8.8%. Also, in [9], the cell survival entry is given as “approximately 40%” and the “concentration from which a statistically significant decrease of cell viability was observed” value amounted to 12.5 µM. Also, the “plasma protein binding—KD” value in data set [10] came to 1670.0 µM. Moreover, in data set [11], the “CYP2D6 activity (% of control ± SD)” value is 122.8 ± 11.7%.

With `CC(=O)NC(C)C(=O)N1CCN(c2cccc(OC(F)(F)F)c2)CC1` (centres unmarked) [Compound 28, N-(1-oxo-1-(4-(3-(Trifluoromethoxy)phenyl)piperazin-1-yl)propan-2-yl)acetamide], in data set [1] (12 mice), the “mice in which both fore- and hindlimb tonus were completely inhibited” value is reported as 9 out of 12; the “mice in which hindlimb tonus (only) was diminished/inhibited” value is on record as 3 mice. Further, in data set [1] (30 min before ivPTZ), the “seizure threshold for generalized clonic seizure with loss of righting reflex” value is given as “significantly raised” and the “seizure threshold for the first myoclonic twitch” value is “significantly raised”. Also, in [2], the “neuromuscular strength (grip strength)” value is reported as “Neither compound 26 nor 28 (50 mg/kg) significantly affect”. Besides, the “% inhibition of control specific binding” value in data set [3] is on record as “–6.9 (100) %”. In data set [4], the inhibition at 100 µM is -7.9%. The inhibition at 10 µM in [5] is 0.1%. Further, the inhibition at 10 µM in [6] was found to be 6.5%. Further, in data set [7], the “PAMPA—Pe ± SD” value is listed as 5.95 10^–6 cm/s and the Papp came to 5.95 ± 0.51 ×10⁻⁶ cm/s. Further, in [8], the viability at 48 h, 1.56 µM came out at 88.2 ± 16.1%. In addition, in data set [9], the cell survival result is “approximately 40%” and the “concentration from which a statistically significant decrease of cell viability was observed” value turned out to be 25 µM. In data set [10], the “plasma protein binding—KD” value turned out to be 1260.0 µM. For the same compound, the “CYP2D6 activity (% of control ± SD)” value in [11] was determined as 115.0 ± 4.5%.
